Values after ≈ are worked out from the molar mass of the structure shown. Like-named read-outs stand apart in the source and are kept apart here.
Key:
CYP3A4 = target: T1, CYP3A4 (Homo sapiens, UniProt P08684); experiment: CYP inhibition in human liver microsomes, 3A4; assay type: in vitro ADME
T1 construct: from tissue; host or cells: human liver microsomes
Method: (§1) Table S2. Result of microsomal stability, plasma protein binding rate, and CYP inhibition of 6l and 6y
(§2) Compound MSa PPBrat human rat human 1A2 2C9 2C19 2D6 3A4
(§3) a % of remaining after 30 min. b plasma protein binding rate (%) at 5 μM concentrations. c % of CYP
(§4) inhibition in human liver microsomes at 10 μM concentrations. […]

[1] = Cytotoxicity in VERO cells; assay type: cell-based; conditions: African green monkey, VERO cells (kidney cell line)
Method: (§5) Table S1. Results of hERG binding assay and cytotoxicity of 6l and 6y
(§6) Compound hERGa CytotoxicityVERO HFL-1 L929 NIH 3T3 CHO-K1
(§7) a % inhibition at 10 μM concentrations. b IC50 values in various mammalian cell lines. […]

S. aureus USA300 JE2 = experiment: Broth microdilution dose-response, S. aureus USA300 JE2 (MRSA); assay type: cell-based, Staphylococcus aureus; conditions: Staphylococcus aureus, USA300, USA300 JE2, methicillin-resistant; OD600 after 18–24 h; read-out: USA300 MIC50
Excerpt: The antistaphylococcal activities (MIC50) of the synthesized compounds were examined via a previously described broth microdilution method against two S. aureus strains: ATCC25923, a methicillin-sensitive reference strain, and JE2, a methicillin-resistant strain of the USA300 lineage (Figure 2, Table 1).
Staphylococcus aureus USA300, a methicillin-resistant strain, was obtained from the Nebraska Transposon Mutant Library. Staphylococcus aureus ATCC25923, a pan-drug-susceptible strain, was purchased from the American Type Culture Collection (ATCC) (Manassas, VA, USA). S. aureus strains were grown in Cation-Adjusted Mueller–Hinton broth (CAMHB) (Difco) at 37 °C. Bacterial strain stocks were stored in vials with 25% glycerol at −80 °C. For each experiment, overnight cultures were prepared by inoculating a frozen bacterial strain stock in 10 mL of CAMHB medium and incubating at 37 °C in a shaking incubator (180 rpm). For the preliminary screen and dose–response experiments, 100 µL of overnight culture was inoculated into 10 mL of fresh CAMHB and incubated for 3 h at 37 °C and 180 rpm.
Antibiotic susceptibility assay was tested according to modified Clinical and Laboratory Standards Institute (CLSI) laboratory guidelines for broth microdilution assays. S. aureus was cultured in CAMHB, and bacterial cells were prepared with an OD600 of 0.005. DRC plates were prepared by adding 40 µL of bacterial suspension to each well, where 10 µL of each compound had been dispensed for […] of two-fold serial dilutions starting at […]. After incubation of the plates at 37 °C for 18–24 h with 5% CO2, the growth of S. aureus was detected by measuring the OD600nm using an Ensight (Revvity) spectrometer (Revvity, Waltham, MA, USA).
Figure 2 In vitro antibacterial activities of 2-(amino)quinazolin-4(3H)-one derivatives. S. aureus ATCC25923 (blue) and USA300 JE (orange) strains were incubated with serial dilutions of 2-(amino)quinazolin-4(3H)-one derivatives (0.19–100 µM) for 18–24 h. The dose–responses were observed by measuring OD600nm. The plots were drawn from each group of strains with nonlinear curve fits.

[2] = Cytotoxicity in HFL-1 cells; assay type: cell-based; conditions: human, HFL-1 cells (embryonic lung cell line)
Method: as §5, §6, §7

[3] = Plasma protein binding, human; assay type: in vitro ADME; conditions: read-out: PPB human, plasma protein binding rate (converted)
Method: as §1, §2, §3, §4

[4] = Microsomal stability, human; assay type: in vitro ADME; conditions: human microsomes
Method: as §1, §2, §3, §4

HepG2 cells = experiment: In vitro cytotoxicity, HepG2 viability (resazurin); assay type: cell-based, human; conditions: HepG2 cells, 24 h, resazurin, read-out: HepG2 IC50
Method: The in vitro cytotoxicity of the compounds was evaluated by measuring the viability of HepG2 cells, a human liver cell line, following treatment in a dose–response manner, as previously described. […] The efficacy window was calculated as the ratio of IC50 in HepG2 cells to MIC50 against JE2.
To test cytotoxicity with compounds, the human liver cell line HepG2 (ATCC #HB-8065) was used for the assay. HepG2 was cultured in DMEM with 10% fetal bovine serum (FBS) in a 96-well microplate at 37 °C and 5% CO2. HepG2 cells were seeded at a final density of 5 × 10^4 cells/well, and DMEM-containing diluted compounds were added and incubated on the plates at 37 °C in 5% CO2 for 24 h. After that, resazurin (final concentration, 0.1 mg/mL) was added to each well and incubated on the plates at 37 °C in 5% CO2 for 2 h. To detect the fluorescence at 530 nm excitation and 590 nm emission, an Ensight multimode plate reader was used (Revvity, Waltham, MA, USA).

CYP1A2 = target: T2, CYP1A2 (Homo sapiens, UniProt P05177); experiment: CYP inhibition in human liver microsomes, 1A2; assay type: in vitro ADME
T2 construct: from tissue; host or cells: human liver microsomes
T2 sequence (P05177 1-516): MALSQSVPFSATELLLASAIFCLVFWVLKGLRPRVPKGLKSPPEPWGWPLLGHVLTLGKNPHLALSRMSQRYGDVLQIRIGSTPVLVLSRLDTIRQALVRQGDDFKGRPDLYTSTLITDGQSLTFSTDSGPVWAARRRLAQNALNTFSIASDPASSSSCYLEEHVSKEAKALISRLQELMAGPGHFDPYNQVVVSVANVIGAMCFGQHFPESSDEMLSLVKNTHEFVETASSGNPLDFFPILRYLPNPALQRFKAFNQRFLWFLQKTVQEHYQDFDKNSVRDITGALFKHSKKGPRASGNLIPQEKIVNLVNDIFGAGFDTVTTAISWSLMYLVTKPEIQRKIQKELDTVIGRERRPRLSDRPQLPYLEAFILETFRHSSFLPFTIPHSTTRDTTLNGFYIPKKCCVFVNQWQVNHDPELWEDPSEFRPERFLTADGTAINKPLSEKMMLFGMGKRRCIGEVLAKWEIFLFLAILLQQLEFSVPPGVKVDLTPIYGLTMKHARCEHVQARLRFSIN
Method: as §1, §2, §3, §4

hERG = hERG (Homo sapiens, UniProt Q12809); experiment: hERG binding assay
Method: as §5, §6, §7

CYP2C19 = target: T3, CYP2C19 (Homo sapiens, UniProt P33261); experiment: CYP inhibition in human liver microsomes, 2C19; assay type: in vitro ADME
T3 construct: from tissue; host or cells: human liver microsomes
Method: as §1, §2, §3, §4

in vitro = assay type: cell-based; conditions: Chinese hamster
Method: as §5, §6, §7

CYP2C9 = target: T4, CYP2C9 (Homo sapiens, UniProt P11712); experiment: CYP inhibition in human liver microsomes, 2C9; assay type: in vitro ADME
T4 construct: from tissue; host or cells: human liver microsomes
Method: as §1, §2, §3, §4

[5] = Microsomal stability, rat; assay type: in vitro ADME; conditions: rat microsomes
Method: as §1, §2, §3, §4

CYP2D6 = target: T5, CYP2D6 (Homo sapiens, UniProt P10635); experiment: CYP inhibition in human liver microsomes, 2D6; assay type: in vitro ADME
T5 construct: from tissue; host or cells: human liver microsomes
Method: as §1, §2, §3, §4

T1 sequence (P08684 whole entry): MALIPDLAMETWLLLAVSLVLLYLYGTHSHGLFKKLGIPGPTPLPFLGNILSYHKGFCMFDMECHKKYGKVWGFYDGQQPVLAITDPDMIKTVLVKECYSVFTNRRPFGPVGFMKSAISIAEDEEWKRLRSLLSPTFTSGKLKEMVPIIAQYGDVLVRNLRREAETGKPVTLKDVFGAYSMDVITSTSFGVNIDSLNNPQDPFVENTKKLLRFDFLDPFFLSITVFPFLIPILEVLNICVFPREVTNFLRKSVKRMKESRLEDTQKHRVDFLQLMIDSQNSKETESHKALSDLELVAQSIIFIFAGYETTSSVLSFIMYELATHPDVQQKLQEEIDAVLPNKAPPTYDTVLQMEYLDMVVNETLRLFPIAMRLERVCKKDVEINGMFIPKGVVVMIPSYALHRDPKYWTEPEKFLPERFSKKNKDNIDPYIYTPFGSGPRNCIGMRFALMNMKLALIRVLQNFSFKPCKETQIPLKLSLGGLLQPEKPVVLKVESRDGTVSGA
T3 sequence (P33261 whole entry): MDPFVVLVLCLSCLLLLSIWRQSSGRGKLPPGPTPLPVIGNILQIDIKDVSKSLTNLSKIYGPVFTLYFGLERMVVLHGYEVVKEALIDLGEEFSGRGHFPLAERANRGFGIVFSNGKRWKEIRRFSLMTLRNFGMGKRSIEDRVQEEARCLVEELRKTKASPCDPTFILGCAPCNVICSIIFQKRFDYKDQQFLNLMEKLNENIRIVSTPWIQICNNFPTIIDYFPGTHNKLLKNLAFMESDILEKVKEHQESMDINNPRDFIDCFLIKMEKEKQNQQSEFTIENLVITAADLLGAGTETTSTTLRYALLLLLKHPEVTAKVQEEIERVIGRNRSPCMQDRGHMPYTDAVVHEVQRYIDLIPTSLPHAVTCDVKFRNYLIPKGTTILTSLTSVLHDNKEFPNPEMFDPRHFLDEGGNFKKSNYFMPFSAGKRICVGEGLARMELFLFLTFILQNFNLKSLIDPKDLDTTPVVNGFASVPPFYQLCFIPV
T4 sequence (P11712 whole entry): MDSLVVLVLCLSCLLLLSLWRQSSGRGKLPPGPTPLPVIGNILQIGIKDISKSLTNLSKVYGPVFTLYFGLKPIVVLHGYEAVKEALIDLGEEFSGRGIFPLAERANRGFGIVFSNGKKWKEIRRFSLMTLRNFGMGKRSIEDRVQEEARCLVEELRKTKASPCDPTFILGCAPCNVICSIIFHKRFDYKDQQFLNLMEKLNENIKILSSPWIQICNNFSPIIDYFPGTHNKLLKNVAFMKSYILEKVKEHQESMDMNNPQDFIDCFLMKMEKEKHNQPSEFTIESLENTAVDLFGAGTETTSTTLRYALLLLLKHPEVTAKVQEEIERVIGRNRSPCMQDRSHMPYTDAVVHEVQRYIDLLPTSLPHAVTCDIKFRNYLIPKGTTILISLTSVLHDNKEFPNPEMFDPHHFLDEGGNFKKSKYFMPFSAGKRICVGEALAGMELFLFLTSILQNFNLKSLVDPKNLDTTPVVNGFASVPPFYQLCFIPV
T5 sequence (P10635 whole entry): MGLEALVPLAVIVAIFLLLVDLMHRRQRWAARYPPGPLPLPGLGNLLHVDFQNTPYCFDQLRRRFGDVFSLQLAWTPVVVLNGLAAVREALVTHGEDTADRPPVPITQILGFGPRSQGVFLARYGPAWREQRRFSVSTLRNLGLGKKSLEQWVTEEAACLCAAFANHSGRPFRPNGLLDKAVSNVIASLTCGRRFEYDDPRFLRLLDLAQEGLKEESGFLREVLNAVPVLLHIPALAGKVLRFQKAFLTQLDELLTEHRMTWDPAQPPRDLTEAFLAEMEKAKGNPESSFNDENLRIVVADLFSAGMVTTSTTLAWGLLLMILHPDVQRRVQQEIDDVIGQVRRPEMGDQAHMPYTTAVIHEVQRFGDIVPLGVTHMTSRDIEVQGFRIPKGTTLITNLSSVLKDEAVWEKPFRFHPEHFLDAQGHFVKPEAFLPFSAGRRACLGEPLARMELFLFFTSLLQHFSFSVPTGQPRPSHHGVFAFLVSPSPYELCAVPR
Sequence of hERG (Q12809 whole entry): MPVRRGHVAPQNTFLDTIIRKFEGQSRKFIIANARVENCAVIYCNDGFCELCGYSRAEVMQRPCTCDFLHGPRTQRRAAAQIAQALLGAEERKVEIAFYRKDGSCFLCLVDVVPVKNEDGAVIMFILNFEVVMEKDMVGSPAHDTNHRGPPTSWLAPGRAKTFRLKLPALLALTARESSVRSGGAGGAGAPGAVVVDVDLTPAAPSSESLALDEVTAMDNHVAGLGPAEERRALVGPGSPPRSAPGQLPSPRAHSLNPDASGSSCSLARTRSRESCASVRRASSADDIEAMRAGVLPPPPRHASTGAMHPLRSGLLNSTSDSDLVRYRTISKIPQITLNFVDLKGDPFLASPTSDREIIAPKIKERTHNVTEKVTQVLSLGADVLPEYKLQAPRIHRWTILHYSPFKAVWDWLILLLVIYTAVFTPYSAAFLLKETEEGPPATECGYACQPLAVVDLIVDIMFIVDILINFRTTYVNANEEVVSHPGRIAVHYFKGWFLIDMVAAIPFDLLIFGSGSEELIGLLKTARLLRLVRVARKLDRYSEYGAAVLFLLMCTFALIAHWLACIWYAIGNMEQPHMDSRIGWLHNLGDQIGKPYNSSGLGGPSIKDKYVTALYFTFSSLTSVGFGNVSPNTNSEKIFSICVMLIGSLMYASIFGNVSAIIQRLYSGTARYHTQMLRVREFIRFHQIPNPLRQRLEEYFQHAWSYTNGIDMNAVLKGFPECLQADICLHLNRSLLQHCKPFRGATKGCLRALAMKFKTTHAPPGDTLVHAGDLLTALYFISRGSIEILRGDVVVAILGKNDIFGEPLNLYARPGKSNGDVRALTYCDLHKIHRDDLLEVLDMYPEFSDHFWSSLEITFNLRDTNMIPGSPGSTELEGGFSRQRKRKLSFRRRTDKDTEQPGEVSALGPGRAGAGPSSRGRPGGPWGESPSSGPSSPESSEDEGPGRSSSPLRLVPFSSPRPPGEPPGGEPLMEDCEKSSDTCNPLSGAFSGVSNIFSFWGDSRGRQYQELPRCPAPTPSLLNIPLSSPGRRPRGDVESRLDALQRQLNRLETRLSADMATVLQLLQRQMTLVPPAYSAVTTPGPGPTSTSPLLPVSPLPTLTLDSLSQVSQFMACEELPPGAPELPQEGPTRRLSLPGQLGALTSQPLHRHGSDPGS

Compound	inhibition at 10 µM (CYP3A4) [%]	IC50 [1] [µM]	MIC50 (S. aureus USA300 JE2) [µM]	IC50 [2] [µM]	fraction unbound at 5 μM [3]	MS human, % of remaining after 30 min [4] [%]	IC50 (HepG2 cells) [µM]	IC50 (HepG2 cells; Homo sapiens, HepG2, 24 h) [µM]	inhibition at 10 µM (CYP1A2) [%]	inhibition at 10 µM (hERG) [%]	inhibition at 10 µM (CYP2C19) [%]	IC50 (in vitro) [µM]	inhibition at 10 µM (CYP2C9) [%]	MS rat, % of remaining after 30 min [5] [%]	inhibition at 10 µM (CYP2D6) [%]
O=c1[nH]c(Nc2cc(Cl)cc(Cl)c2)nc2cc(Cl)ccc12 [6l, 7-Chloro-2-((3,5-dichlorophenyl)amino)quinazolin-4(3H)-one]	32.2	8.5	0.6 (≈ 0.204 µg/mL)	7.5	0.002	99.3	62.2	62	15.1	37.8	< 1	11	18.2	104.7	20.1
O=c1[nH]c(NCc2ccc(F)c(F)c2)nc2cc(Cl)ccc12 [6y, 7-Chloro-2-((3,4-difluorobenzyl)amino)quinazolin-4(3H)-one]	91.4	50.5	0.02 (≈ 0.00643 µg/mL)	50.7	0.002	42.9	–	20.2	92.5	11.4	93.6	51.6	91	53.8	90.1

Source: PMC12561453, “Synthesis and Structure–Activity Relationship Study of 2-(amino)quinazolin-4(3H)-one Derivatives as Potential Inhibitors of Methicillin-Resistant Staphylococcus aureus (MRSA)” (Antibiotics, 2025)
